From PubChem BioAssay (NCI)
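48-hour exposure; five concentrations; linearly interpolated endpoints. TGI: total growth inhibition.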

What was measured:
Experiment in all cases: NCI tumour cell line growth inhibition, 48 h
MALME-3M melanoma = system: MALME-3M melanoma
HCC-2998 colon = system: HCC-2998 colon
SNB-19 CNS = system: SNB-19 CNS
A549 NSCLC = system: A549 NSCLC
KM20L2 colon = system: KM20L2 colon
NCI-H23 lung = system: NCI-H23 lung
OVCAR-3 ovarian = system: OVCAR-3 ovarian
SK-OV-3 ovarian = system: SK-OV-3 ovarian
OVCAR-4 ovarian = system: OVCAR-4 ovarian
DMS 114 small cell lung = system: DMS 114 small cell lung
HT29 colon = system: HT29 colon
RXF 393 renal = system: RXF 393 renal
SNB-75 CNS = system: SNB-75 CNS
HOP-62 NSCLC = system: HOP-62 NSCLC
SN12C renal = system: SN12C renal
SK-MEL-2 melanoma = system: SK-MEL-2 melanoma
UACC-62 melanoma = system: UACC-62 melanoma
M19-MEL melanoma = system: M19-MEL melanoma
IGROV1 ovarian = system: IGROV1 ovarian
UACC-257 melanoma = system: UACC-257 melanoma
LOX IMVI melanoma = system: LOX IMVI melanoma
U251 CNS = system: U251 CNS
K-562 leukemia = system: K-562 leukemia
CCRF-CEM leukemia = system: CCRF-CEM leukemia
SK-MEL-28 melanoma = system: SK-MEL-28 melanoma
TK-10 renal = system: TK-10 renal
NCI-H226 lung = system: NCI-H226 lung
DLD-1 colon = system: DLD-1 colon
UO-31 renal = system: UO-31 renal
786-0 renal = system: 786-0 renal
M14 melanoma = system: M14 melanoma
SK-MEL-5 melanoma = system: SK-MEL-5 melanoma
ACHN renal = system: ACHN renal
MOLT-4 leukemia = system: MOLT-4 leukemia
OVCAR-5 ovarian = system: OVCAR-5 ovarian
HOP-18 NSCLC = system: HOP-18 NSCLC
NCI-H522 lung = system: NCI-H522 lung
SW-620 colon = system: SW-620 colon
SF-295 CNS = system: SF-295 CNS
LXFL 529 NSCLC = system: LXFL 529 NSCLC
SR leukemia = system: SR leukemia
SF-268 CNS = system: SF-268 CNS
HCT-15 colon = system: HCT-15 colon
EKVX NSCLC = system: EKVX NSCLC
NCI-H460 lung = system: NCI-H460 lung
HCT-116 colon = system: HCT-116 colon
KM12 colon = system: KM12 colon
OVCAR-8 ovarian = system: OVCAR-8 ovarian
CAKI-1 renal = system: CAKI-1 renal
RXF-631 renal = system: RXF-631 renal
COLO 205 colon = system: COLO 205 colon
A498 renal = system: A498 renal
HL-60(TB) leukemia = system: HL-60(TB) leukemia
DMS 273 small cell lung = system: DMS 273 small cell lung
SF-539 CNS = system: SF-539 CNS
HOP-92 NSCLC = system: HOP-92 NSCLC
RPMI-8226 leukemia = system: RPMI-8226 leukemia
XF 498 CNS = system: XF 498 CNS

Cc1ccc2c(c1)C(c1cccc3ccccc13)OC2=O (centres undefined)
TGI (MALME-3M melanoma): > 100 µM
TGI (HCC-2998 colon): > 100 µM
TGI (SNB-19 CNS): > 100 µM
TGI (A549 NSCLC): > 100 µM
TGI (KM20L2 colon): > 100 µM
TGI (NCI-H23 lung): > 100 µM
TGI (OVCAR-3 ovarian): > 100 µM
TGI (SK-OV-3 ovarian): > 100 µM
TGI (OVCAR-4 ovarian): > 100 µM
TGI (DMS 114 small cell lung): > 100 µM
TGI (HT29 colon): > 100 µM
TGI (RXF 393 renal): 80.4 µM
TGI (SNB-75 CNS): > 100 µM
TGI (HOP-62 NSCLC): 81.7 µM
TGI (SN12C renal): > 100 µM
TGI (SK-MEL-2 melanoma): > 100 µM
TGI (UACC-62 melanoma): > 100 µM
TGI (M19-MEL melanoma): > 100 µM
TGI (IGROV1 ovarian): > 100 µM
TGI (UACC-257 melanoma): > 100 µM
TGI (LOX IMVI melanoma): > 100 µM
TGI (U251 CNS): > 100 µM
TGI (K-562 leukemia): > 100 µM
TGI (CCRF-CEM leukemia): > 100 µM
TGI (SK-MEL-28 melanoma): > 100 µM
TGI (TK-10 renal): > 100 µM
TGI (NCI-H226 lung): > 100 µM
TGI (DLD-1 colon): > 100 µM
TGI (UO-31 renal): > 100 µM
TGI (786-0 renal): > 100 µM
TGI (M14 melanoma): > 100 µM
TGI (SK-MEL-5 melanoma): > 100 µM
TGI (ACHN renal): > 100 µM
TGI (MOLT-4 leukemia): > 100 µM
TGI (OVCAR-5 ovarian): > 100 µM
TGI (HOP-18 NSCLC): > 100 µM
TGI (NCI-H522 lung): > 100 µM
TGI (SW-620 colon): > 100 µM
TGI (SF-295 CNS): > 100 µM
TGI (LXFL 529 NSCLC): > 100 µM
TGI (SR leukemia): > 100 µM
TGI (SF-268 CNS): > 100 µM
TGI (HCT-15 colon): > 100 µM
TGI (EKVX NSCLC): > 100 µM
TGI (NCI-H460 lung): > 100 µM
TGI (HCT-116 colon): > 100 µM
TGI (KM12 colon): > 100 µM
TGI (OVCAR-8 ovarian): > 100 µM
TGI (CAKI-1 renal): > 100 µM
TGI (RXF-631 renal): > 100 µM
TGI (COLO 205 colon): > 100 µM
TGI (A498 renal): 83.9 µM
TGI (HL-60(TB) leukemia): > 100 µM
TGI (DMS 273 small cell lung): > 100 µM

O=[N+]([O-])c1nccn1COCCBr
TGI (MALME-3M melanoma): > 100 µM
TGI (SNB-19 CNS): > 100 µM
TGI (A549 NSCLC): > 100 µM
TGI (KM20L2 colon): > 100 µM
TGI (NCI-H23 lung): > 100 µM
TGI (OVCAR-3 ovarian): > 100 µM
TGI (SK-OV-3 ovarian): > 100 µM
TGI (OVCAR-4 ovarian): > 100 µM
TGI (DMS 114 small cell lung): > 100 µM
TGI (HT29 colon): > 100 µM
TGI (SNB-75 CNS): > 100 µM
TGI (SF-539 CNS): > 100 µM
TGI (HOP-62 NSCLC): > 100 µM
TGI (SN12C renal): > 100 µM
TGI (SK-MEL-2 melanoma): > 100 µM
TGI (HOP-92 NSCLC): > 100 µM
TGI (RPMI-8226 leukemia): > 100 µM
TGI (UACC-62 melanoma): > 100 µM
TGI (M19-MEL melanoma): > 100 µM
TGI (UACC-257 melanoma): > 100 µM
TGI (LOX IMVI melanoma): > 100 µM
TGI (U251 CNS): > 100 µM
TGI (K-562 leukemia): > 100 µM
TGI (CCRF-CEM leukemia): > 100 µM
TGI (SK-MEL-28 melanoma): > 100 µM
TGI (TK-10 renal): > 100 µM
TGI (NCI-H226 lung): > 100 µM
TGI (DLD-1 colon): > 100 µM
TGI (UO-31 renal): > 100 µM
TGI (786-0 renal): > 100 µM
TGI (M14 melanoma): > 100 µM
TGI (SK-MEL-5 melanoma): > 100 µM
TGI (ACHN renal): > 100 µM
TGI (MOLT-4 leukemia): > 100 µM
TGI (OVCAR-5 ovarian): > 100 µM
TGI (NCI-H522 lung): > 100 µM
TGI (SW-620 colon): > 100 µM
TGI (SF-295 CNS): > 100 µM
TGI (LXFL 529 NSCLC): > 100 µM
TGI (SR leukemia): > 100 µM
TGI (SF-268 CNS): > 100 µM
TGI (HCT-15 colon): > 100 µM
TGI (XF 498 CNS): > 100 µM
TGI (EKVX NSCLC): > 100 µM
TGI (NCI-H460 lung): > 100 µM
TGI (HCT-116 colon): > 100 µM
TGI (KM12 colon): > 100 µM
TGI (OVCAR-8 ovarian): > 100 µM
TGI (CAKI-1 renal): > 100 µM
TGI (HL-60(TB) leukemia): > 100 µM
